This is an account of results in patent publication US11174242B2, “Heteroaryl compounds and their use” (Minoryx Therapeutics S.L., priority 2016, dated 2021).

The target of the experiment is T1, β-glucocerebrosidase, p.L444P mutation (GM08760A fibroblasts) (Homo sapiens, UniProt P04062, L483P).
T1 construct: host or cells: human Gaucher patient fibroblasts GM08760A, homozygous L444P
T1 sequence (P04062 40-536 L483P): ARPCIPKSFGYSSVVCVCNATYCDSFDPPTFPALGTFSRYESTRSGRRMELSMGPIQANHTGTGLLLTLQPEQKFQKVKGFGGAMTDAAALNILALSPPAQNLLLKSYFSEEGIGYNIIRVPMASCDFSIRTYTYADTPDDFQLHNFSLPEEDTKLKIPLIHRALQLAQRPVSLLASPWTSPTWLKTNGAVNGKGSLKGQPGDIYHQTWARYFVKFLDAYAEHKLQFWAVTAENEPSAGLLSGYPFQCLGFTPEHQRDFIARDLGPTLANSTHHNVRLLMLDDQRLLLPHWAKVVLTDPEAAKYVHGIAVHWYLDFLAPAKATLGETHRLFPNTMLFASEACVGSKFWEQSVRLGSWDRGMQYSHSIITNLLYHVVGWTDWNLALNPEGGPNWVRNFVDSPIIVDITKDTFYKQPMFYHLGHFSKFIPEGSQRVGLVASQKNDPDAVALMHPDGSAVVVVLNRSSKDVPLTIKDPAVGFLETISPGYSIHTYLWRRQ
Description: Enhancement of β-glucocerebrosidase activity measured in Gaucher disease fibroblasts (L444P). It is filed as cell-based. The following applies: increase in enzyme activity vs non-treated cells, GBA fibroblasts bearing L444P. Here is the method:
Enhancement of β-Glucocerebrosidase Activity Measured in Gaucher Disease Fibroblasts Materials
Human fibroblasts from a patient with Gaucher disease homozygous for p.L444P mutation (GM08760A) were purchased from Coriell Institute for Medical Research (Camden, N.J., USA).
Fibroblasts were seeded at 5×10^3 cells per well in 96-well cell culture plates (Corning, N.Y., USA) in Dulbecco's Modified Eagle's Media (DMEM) supplemented with 10% of fetal bovine serum (FBS), 1% penicillin/streptomycin (P/S) (Thermo Fisher Scientific, Waltham, Mass., USA) and grown at 37° C., 5% CO2 overnight for cell attachment. Subsequently, cells were incubated in the absence or presence of the compounds at the desired concentration for 4 days. After incubation, cells were washed twice with phosphate-buffered saline (PBS) and enzyme activity assay was performed.
β-glucocerebrosidase activity in intact cultured cells was measured by using 4-methylumbelliferyl-β-D-glucopyranoside substrate (Apollo Scientific, UK). Briefly, cells were incubated with 4-MU-β-D-glucopyranoside in 0.1 M acetate buffer pH=4 at 37° C. for 1 hour. […] The liberated 4-MU was measured on a GloMax Discover plate reader (Promega, Madison, Wis., USA) with and excitation at 340 nm and emission at 460 nm. Enzyme activities were expressed in treated cells as X-fold increase in comparison with non-treated cells (X=1 represents no enhancement).
The capacity of the compounds of the disclosure to produce an increase in enzyme activity in GBA fibroblasts bearing L444P at concentrations between 6 and 50 μM is denoted as follows:
The following compounds listed in Table 2 were purchased (from Enamine, Princeton, Asinex, Vistas-M, and OSSK_541352) and tested in the assay as described above.

Where [1] appears, read: commercially available compounds, 6-50 μM, 4 days.
Where [2] appears, read: concentrations between 6 and 50 μM, 4 days incubation.

As for `COc1cccc(N2CCN(Cc3nc(N)nc(Nc4ccc(C)cc4)n3)CC2)c1` [6-((4-(3-methoxyphenyl)piperazin-1-yl)methyl)-N2-(p-tolyl)-1,3,5-triazine-2,4-diamine], the “Activity L444P” value under setting [1] was “C (Increase in comparison with non-treated of 1.2-1.7 fold is shown as C)”. For `Cc1ccc(Nc2nc(N)nc(CN3CCN(c4ccccc4)CC3)n2)cc1` [6-((4-phenylpiperazin-1-yl)methyl)-N2-(p-tolyl)-1,3,5-triazine-2,4-diamine], the “Activity L444P” value under setting [1] is on record as “C (Increase in comparison with non-treated of 1.2-1.7 fold is shown as C)”. On the same count and under the same terms, the result for `Cc1ccc(Nc2nc(N)nc(CN(C)CCOc3ccc(Cl)cc3)n2)cc1` [6-(((2-(4-chlorophenoxy)ethyl)(methyl)amino)methyl)-N2-(p-tolyl)-1,3,5-triazine-2,4-diamine] reads “C (Increase in comparison with non-treated of 1.2-1.7 fold is shown as C)”; that for `Cc1ccc(Nc2nc(N)nc(CN(C)Cc3ccco3)n2)cc1` [6-(((furan-2-ylmethyl)(methyl)amino)methyl)-N2-(p-tolyl)-1,3,5-triazine-2,4-diamine], “C (Increase in comparison with non-treated of 1.2-1.7 fold is shown as C)”. As to `Nc1nc(CN(Cc2ccc(F)cc2)C2CC2)nc(Nc2ccc(F)cc2)n1` [6-((cyclopropyl(4-fluorobenzyl)amino)methyl)-N2-(4-fluorophenyl)-1,3,5-triazine-2,4-diamine], the “Activity L444P” value under setting [1] is reported as “C (Increase in comparison with non-treated of 1.2-1.7 fold is shown as C)”. With `Cc1ccc(CN(C)Cc2nc(N)nc(Nc3ccccc3C)n2)cc1` [6-((methyl(4-methylbenzyl)amino)methyl)-N2-(o-tolyl)-1,3,5-triazine-2,4-diamine], the “Activity L444P” value under setting [1] is on record as “C (Increase in comparison with non-treated of 1.2-1.7 fold is shown as C)”.

For the compound `Cc1ccccc1Nc1nc(N)nc(CN(C)c2ccccc2)n1` [6-((methyl(phenyl)amino)methyl)-N2-(o-tolyl)-1,3,5-triazine-2,4-diamine], the “Activity L444P” value under setting [1] was “C (Increase in comparison with non-treated of 1.2-1.7 fold is shown as C)”. With `COc1ccc(Nc2nc(N)nc(CN(C)c3ccccc3)n2)cc1` [Example 2, N^2-(4-Methoxyphenyl)-6-((methyl(phenyl)amino)methyl)-1,3,5-triazine-2,4-diamine], under setting [2], the “Activity L444P” value is recorded as “C (Increase in comparison with non-treated of 1.2-1.7 fold is shown as C)”.

As to `CN(Cc1ccccc1)Cc1nc(N)nc(Nc2ccc(C#N)cc2)n1` [Example 11, 4-(4-Amino-6-((benzyl(methyl)amino)methyl)-1,3,5-triazin-2-ylamino)benzonitrile], under setting [2], the “Activity L444P” value is given as “C (Increase in comparison with non-treated of 1.2-1.7 fold is shown as C)”. Consider `COc1ccccc1Nc1cc(CN(C)Cc2ccccc2)nc(N)n1` [Example 15, 6-((benzyl(methyl)amino)methyl)-N^4-(2-methoxyphenyl)pyrimidine-2,4-diamine], for which the “Activity L444P” value under setting [2] is on record as “B (Increase in comparison with non-treated of >1.7-2.0 fold is shown as B)”. Still for that read-out and setting: to `COc1cccc(Nc2cc(CN(C)Cc3ccccc3)nc(N)n2)c1` [Example 17] belongs “B (Increase in comparison with non-treated of >1.7-2.0 fold is shown as B)”; to `CN(Cc1ccccc1)Cc1cc(Nc2ccc(Cl)cc2)nc(N)n1` [Example 21, 6-((benzyl(methyl)amino)methyl)-N^4-(4-chlorophenyl)pyrimidine-2,4-diamine], “B (Increase in comparison with non-treated of >1.7-2.0 fold is shown as B)”. Still for that read-out and setting: to `Cc1ccc(Nc2cc(N)nc(CN(C)Cc3ccccc3)n2)cc1` [Example 22, 2-((Benzyl(methyl)amino)methyl)-N^4-(p-tolyl)pyrimidine-4,6-diamine] belongs “B (Increase in comparison with non-treated of >1.7-2.0 fold is shown as B)”. On to `Cc1ccc(Nc2nc(N)cc(CN(C)Cc3ccccc3)n2)cc1` [Example 23, 6-((benzyl(methyl)amino)methyl)-N^2-p-tolylpyrimidine-2,4-diamine], for which, under setting [2], the “Activity L444P” value is recorded as “B (Increase in comparison with non-treated of >1.7-2.0 fold is shown as B)”.

For the compound `Cc1ccc(Nc2nc(N)nc(CNC3CCc4ccccc4C3)n2)cc1` (stereo not shown) [Example 27, 6-(((1,2,3,4-Tetrahydronaphthalen-2-yl)amino)methyl)-N-(p-tolyl)-1,3,5-triazine-2,4-diamine], the “Activity L444P” value under setting [2] was “C (Increase in comparison with non-treated of 1.2-1.7 fold is shown as C)”. In the case of `CN(Cc1ccccc1)Cc1cc(Nc2cccc(C#N)c2)nc(N)n1` [Example 29, 3-(2-Amino-6-((benzyl(methyl)amino)methyl)pyrimidin-4-ylamino)benzonitrile], the “Activity L444P” value under setting [2] is listed as “B (Increase in comparison with non-treated of >1.7-2.0 fold is shown as B)”. The same measure, in the same setting: to `Cc1ccc(Nc2cc(CN(C)Cc3cccc(C)c3)nc(N)n2)cc1` [Example 32, 6-((Methyl(3-methylbenzyl)amino)methyl)-N^4-p-tolylpyrimidine-2,4-diamine] belongs “C (Increase in comparison with non-treated of 1.2-1.7 fold is shown as C)”; to `Cc1ccc(CN(C)Cc2cc(Nc3ccc(C)cc3)nc(N)n2)cc1` [Example 34, 6-((Methyl(4-methylbenzyl)amino)methyl)-N^4-p-tolylpyrimidine-2,4-diamine], “B (Increase in comparison with non-treated of >1.7-2.0 fold is shown as B)”. Regarding `Cc1ccc(Nc2cc(CN3CCc4ccccc4C3)nc(N)n2)cc1` [Example 35, 6-((3,4-Dihydroisoquinolin-2(1H)-yl)methyl)-N^4-p-tolylpyrimidine-2,4-diamine], under setting [2], the “Activity L444P” value is given as “B (Increase in comparison with non-treated of >1.7-2.0 fold is shown as B)”. `COc1cccc(Nc2cc(CN(C)Cc3cccc(C)c3)nc(N)n2)c1` [Example 38]: the “Activity L444P” value under setting [2] is “B (Increase in comparison with non-treated of >1.7-2.0 fold is shown as B)”. With `Cc1cccc(Nc2cc(CN(C)Cc3cccc(C#N)c3)nc(N)n2)c1` [Example 39, 3-((((2-Amino-6-(m-tolylamino)pyrimidin-4-yl)methyl)(methyl)amino)methyl) benzonitrile], the “Activity L444P” value under setting [2] is listed as “C (Increase in comparison with non-treated of 1.2-1.7 fold is shown as C)”. Same read-out and setting: to `CCc1ccc(CN(C)Cc2cc(Nc3cccc(OC)c3)nc(N)n2)cc1` [Example 40, 6-(((4-Ethylbenzyl)(methyl)amino)methyl)-N^4-(3-methoxyphenyl)pyrimidine-2,4-diamine] belongs “B (Increase in comparison with non-treated of >1.7-2.0 fold is shown as B)”; to `COCCN(Cc1ccccc1)Cc1cc(Nc2cccc(OC)c2)nc(N)n1` [Example 49, 6-((Benzyl(2-methoxyethyl)amino)methyl)-N^4-(3-methoxyphenyl)pyrimidine-2,4-diamine], “C (Increase in comparison with non-treated of 1.2-1.7 fold is shown as C)”. As to `COc1cccc(Nc2cc(CN(C)c3cccc(OC)c3)nc(N)n2)c1` [Example 51], under setting [2], the “Activity L444P” value is on record as “C (Increase in comparison with non-treated of 1.2-1.7 fold is shown as C)”.

For the compound `COc1cccc(CN(C)Cc2cc(Nc3ccc(C)cc3)nc(N)n2)c1` [Example 53, 6-(((3-Methoxybenzyl)(methyl)amino)methyl)-N^4-p-tolylpyrimidine-2,4-diamine], the “Activity L444P” value under setting [2] is on record as “C (Increase in comparison with non-treated of 1.2-1.7 fold is shown as C)”.

On to `Cc1ccc(Nc2cc(CN(C)Cc3cccc(C#N)c3)nc(N)n2)cc1` [Example 55, 3-((((2-Amino-6-(p-tolylamino)pyrimidin-4-yl)methyl)(methyl)amino)methyl)benzonitrile], for which the “Activity L444P” value under setting [2] is “B (Increase in comparison with non-treated of >1.7-2.0 fold is shown as B)”. Consider `Cc1ccc(Nc2cc(CN(C)Cc3ccc(C#N)cc3)nc(N)n2)cc1` [Example 57, 4-((((2-Amino-6-(p-tolylamino)pyrimidin-4-yl)methyl)(methyl)amino)methyl)benzonitrile], for which, under setting [2], the “Activity L444P” value was “C (Increase in comparison with non-treated of 1.2-1.7 fold is shown as C)”. Still for that read-out and setting: to `Cc1ccc(Nc2cc(CN(C)Cc3ccncc3)nc(N)n2)cc1` [Example 60, 6-((Methyl(pyridin-4-ylmethyl)amino)methyl)-N^4-p-tolylpyrimidine-2,4-diamine] belongs “C (Increase in comparison with non-treated of 1.2-1.7 fold is shown as C)”.
